Earlier results, collected in patent US9481672B2 (priority 2012, dated 2016).

System: chymase
Conditions: hamsters, myocardial infarction model

Q: With `CCOc1ccccc1CC1C(=O)N(C(=O)NC(c2ccc(C)cc2)c2ccc(C)cc2)C1Oc1ccc(C(=O)O)cc1` (stereo not drawn) [BCEAB] as the compound, how does the chymase activity read?
A: Its chymase activity is “reduced”.

Q: And the haemodynamics?
A: The haemodynamics was “improved”.

Q: And the mortality?
A: Its mortality is “reduced”.
